Results taken from patent publication US20070173438A1, “[PSI[CH2NH]PG4] glycopeptide antibiotic analogs” (The Scripps Research Institute, priority 2006, published 2007).
≈ marks a conversion by molar mass, not a printed value. Where “and” joins values, the source holds several entries; their conditions need not be identical. Equal values may be shown once.

Tests used:
[1] = system: N,N′-Ac2-Lys-D-Ala-D-Ala (2); experiment: UV difference titration binding constant with model ligand N,N′-Ac2-Lys-D-Ala-D-Ala; conditions: for Ka, affinity for D-Ala-D-Ala (Ac2-L-Lys-D-Ala-D-Ala, 2): association constant, 0.02 M sodium citrate buffer, Scatchard plot
Description: (§1) Binding Constant Determination. The binding constants for compounds 5 and 41 for association with the model ligands N,N′-Ac2-Lys-D-Ala-D-Ala and N,N′-Ac2-Lys-D-Ala-D-Lac were determined according to literature (Nieto, M.; Perkins, H. R. Biochem. J. 1971, 124, 845; Nieto, M.; Perkins, H. R. Biochem. J. 1971, 124, 773; Nieto, M.; Perkins, H. R. Biochem. J. 1971, 124, 789) protocols. UV difference experiments were carried out on a CARY 3E UV-Vis spectrometer. UV scans were run with a baseline correction that consisted of 0.02 M sodium citrate buffer and covered a range from 200 to 345 nm. A solution of 5 or 41 (1.1×10^−4 M in 0.02 M sodium citrate buffer) was placed into a quartz UV cuvette (1.0 cm path length) and the UV spectrum recorded versus a reference cell containing 0.02 M sodium citrate buffer. UV spectra were recorded after each addition of a solution of N,N′-Ac2-Lys-D-Ala-D-Ala or N,N′-Ac2-Lys-D-Ala-D-Lac in 0.02 M sodium citrate buffer to each cell from 0.1 to 140.0 equivalents. The absorbance value at the λmax was recorded and the running change in absorbance, ΔAx equiv (Ainitial−Ax equiv, ) measured. The number of ligand equivalents was plotted versus ΔA to afford the ligand binding titration curve. The break point of this curve is the saturation point of the system and its xy coordinates determined by establishing the intersection of the linear fits of the pre and postsaturation curves. ΔAsaturation was calculated and employed to determine the concentration of free ligand in solution at each titration. ΔA was plotted versus ΔA/free ligand concentration to give a Scatchard plot from which the binding constants were determined.

[2] = system: N,N′-Ac2-Lys-D-Ala-D-Lac (4); experiment: UV difference titration binding constant with model ligand N,N′-Ac2-Lys-D-Ala-D-Lac; conditions: for Ka, affinity for D-Ala-D-Lac (Ac2-L-Lys-D-Ala-D-Lac, 4): association constant, 0.02 M sodium citrate buffer, Scatchard plot
Description: as §1

[3] = system: VanA Enterococcus faecalis (BM4166); experiment: antimicrobial assay against VanA resistant organism; assay type: cell-based; conditions: for potency weaker than vancomycin and its aglycon against sensitive E. faecalis: MIC against VanA BM4166 compared with vancomycin/aglycon MIC against sensitive E. faecalis
Text: (§2) It is the most difficult of the resistant organisms to treat (vs VanB) and characteristic of such organisms, they grow unchallenged enlisting a D-Ala-D-Ala peptidoglycan cell wall precursor, but switch to D-Ala-D-Lac upon glycopeptide treatment.

[4] = system: 3 (methylene analogue of Ac2-L-Lys-D-Ala-D-Ala); conditions: cited from earlier work
[5] = system: N,N′-Ac2-Lys-D-Ala-D-Lac (4); conditions: cited from earlier work
sensitive E. faecalis = experiment: antimicrobial activity against sensitive E. faecalis; assay type: cell-based; conditions: Enterococcus faecalis
Text: as §2

[6] = system: enterococci resistant to vancomycin, VanA and VanB; conditions: literature; cited from earlier work

increase in binding affinity for D-Ala-D-Ala, 5 versus 41 ([1]; 5 versus carbamate 41) [fold] | Ka, affinity for D-Ala-D-Ala (Ac2-L-Lys-D-Ala-D-Ala, 2) [1] [M⁻¹] | reduction in affinity for D-Ala-D-Ala relative to the vancomycin aglycon ([1]; relative to vancomycin aglycon) | increase in binding affinity for D-Ala-D-Lac, 5 versus 41 ([2]; 5 versus carbamate 41) [fold] | Ka, affinity for D-Ala-D-Lac (Ac2-L-Lys-D-Ala-D-Lac, 4) [2] [M⁻¹] | increase in affinity for D-Ala-D-Lac relative to the vancomycin aglycon ([2]; relative to vancomycin aglycon) | MIC ([3]; VanA E. faecalis BM4166) [µg/mL] | SMILES | potency weaker than vancomycin and its aglycon against sensitive E. faecalis [3] | potency relative to vancomycin or its aglycon (more potent) ([3]; VanA E. faecalis BM4166) | affinity for 3 less than that of 2 ([4]; relative to Ac2-L-Lys-D-Ala-D-Ala (2)) | affinity for 3 greater than that of 4 ([4]; relative to Ac2-L-Lys-D-Ala-D-Lac (4)) [fold] | reduction of binding to D-Ala-D-Lac ligand versus D-Ala-D-Ala ([5]; literature) [fold] | destabilizing lone pair/lone pair interaction with ester oxygen of 4 ([5]; share of lost binding energy) [kcal/mol] | reduced binding affinity of 4 ([5]; versus 2, total loss) [kcal/mol] | MIC (sensitive E. faecalis) [µg/mL] | MIC ([3]; Enterococcus faecalis) [µg/mL] | drop in antimicrobial activity with D-Ala-D-Lac resistant bacteria [6] [fold]
3 | 4800 | 37 fold and 35 fold | 1.2 | 5200 | 43 fold and 40 fold | 31 (≈ 27.4 µM) | CN[C@H](CC(C)C)C(=O)N[C@H]1C(=O)N[C@@H](CC(N)=O)C(=O)N[C@H]2CN[C@H]3C(=O)N[C@H](C(=O)N[C@H](C(=O)O)c4cc(O)cc(O)c4-c4cc3ccc4O)[C@H](O)c3ccc(c(Cl)c3)Oc3cc2cc(c3O)Oc2ccc(cc2Cl)[C@H]1O [Compound 5, [ψ[CH2NH]Tpg^4]vancomycin aglycon] | roughly 30 fold | roughly 40 fold | – | – | – | – | – | – | – | –
– | 1600 | – | – | 4100 | – | 31 (≈ 23.8 µM) | CN[C@H](CC(C)C)C(=O)N[C@H]1C(=O)N[C@@H](CC#N)C(=O)N[C@H]2CN(C(=O)OC)[C@H]3C(=O)N[C@H](C(=O)N[C@H](COCOCCOC)c4cc(OC)cc(OC)c4-c4cc3ccc4OC)[C@H](O)c3ccc(c(Cl)c3)Oc3cc2cc(c3OC)Oc2ccc(cc2Cl)[C@H]1O [Compound 41] | roughly 30 fold | roughly 40 fold | – | – | – | – | – | – | – | –
– | – | – | – | – | – | – | CN[C@H](CC(C)C)C(=O)N[C@H]1C(=O)N[C@@H](CC(N)=O)C(=O)N[C@H]2C(=O)N[C@H]3C(=O)N[C@H](C(=O)N[C@H](C(=O)O)c4cc(O)cc(O)c4-c4cc3ccc4O)[C@H](O)c3ccc(c(Cl)c3)Oc3cc2cc(c3O[C@@H]2O[C@H](CO)[C@@H](O)[C@H](O)[C@H]2O[C@H]2C[C@](C)(N)[C@H](O)[C@H](C)O2)Oc2ccc(cc2Cl)[C@H]1O [vancomycin] | – | – | approximately 10 fold | 100 | 1000 | 2.6 | 4.1 | 1 to 2.5 (≈ 0.69 to 1.73 µM) | 2000 (≈ 1380 µM) | 1000

SMILES | increase in binding affinity for D-Ala-D-Ala, 5 versus 41 ([1]; 5 versus carbamate 41) [fold] | Ka, affinity for D-Ala-D-Ala (Ac2-L-Lys-D-Ala-D-Ala, 2) [1] [M⁻¹] | reduction in affinity for D-Ala-D-Ala relative to the vancomycin aglycon ([1]; relative to vancomycin aglycon) | increase in binding affinity for D-Ala-D-Lac, 5 versus 41 ([2]; 5 versus carbamate 41) [fold] | Ka, affinity for D-Ala-D-Lac (Ac2-L-Lys-D-Ala-D-Lac, 4) [2] [M⁻¹] | increase in affinity for D-Ala-D-Lac relative to the vancomycin aglycon ([2]; relative to vancomycin aglycon) | MIC ([3]; VanA E. faecalis BM4166) [µg/mL] | potency weaker than vancomycin and its aglycon against sensitive E. faecalis [3] | potency relative to vancomycin or its aglycon (more potent) ([3]; VanA E. faecalis BM4166) | affinity for 3 less than that of 2 ([4]; relative to Ac2-L-Lys-D-Ala-D-Ala (2)) | affinity for 3 greater than that of 4 ([4]; relative to Ac2-L-Lys-D-Ala-D-Lac (4)) [fold] | reduction of binding to D-Ala-D-Lac ligand versus D-Ala-D-Ala ([5]; literature) [fold] | destabilizing lone pair/lone pair interaction with ester oxygen of 4 ([5]; share of lost binding energy) [kcal/mol] | reduced binding affinity of 4 ([5]; versus 2, total loss) [kcal/mol] | MIC (sensitive E. faecalis) [µg/mL] | MIC ([3]; Enterococcus faecalis) [µg/mL] | drop in antimicrobial activity with D-Ala-D-Lac resistant bacteria [6] [fold]
CN[C@H](CC(C)C)C(=O)N[C@H]1C(=O)N[C@@H](CC(N)=O)C(=O)N[C@H]2C(=O)N[C@H]3C(=O)N[C@H](C(=O)N[C@H](C(=O)O)c4cc(O)cc(O)c4-c4cc3ccc4O)[C@H](O)c3ccc(c(Cl)c3)Oc3cc2cc(c3O)Oc2ccc(cc2Cl)[C@H]1O [vancomycin aglycon, reference compound] | – | 170000 | – | – | 120 | – | 640 (≈ 559 µM) | – | – | – | – | – | – | – | – | – | –
